Source: article PMC6592262, “Isolation and functional characterization of two dioxygenases putatively involved in bixin biosynthesis in annatto (Bixa orellana L.)” (PeerJ, 2019)

Target: T1, BoCCD4-3 (Bixa orellana, UniProt A0A140CWS5)
T1 construct: gene CCD4-3; complete ORF (1,785 bp amplicon, predicted 30-residue transit peptide kept) in pDEST17, arabinose-induced in lycopene-accumulating E. coli BL21 (pACCRTEIB); cells or crude cell-free extract, not purified
Assay: cleavage in lycopene-accumulating E. coli and in cell-free extract; HPLC, UHPLC-ESI-QTOF-MS/MS, FTIR
Assay type: biochemical
Settings: 1 mM lycopene added 1:1 to extract, 22 °C, up to 5 min; product bixin aldehyde (m/z 349.2), 5,6/5',6' cleavage; crude extract

T1 sequence (A0A140CWS5 entry or part of it): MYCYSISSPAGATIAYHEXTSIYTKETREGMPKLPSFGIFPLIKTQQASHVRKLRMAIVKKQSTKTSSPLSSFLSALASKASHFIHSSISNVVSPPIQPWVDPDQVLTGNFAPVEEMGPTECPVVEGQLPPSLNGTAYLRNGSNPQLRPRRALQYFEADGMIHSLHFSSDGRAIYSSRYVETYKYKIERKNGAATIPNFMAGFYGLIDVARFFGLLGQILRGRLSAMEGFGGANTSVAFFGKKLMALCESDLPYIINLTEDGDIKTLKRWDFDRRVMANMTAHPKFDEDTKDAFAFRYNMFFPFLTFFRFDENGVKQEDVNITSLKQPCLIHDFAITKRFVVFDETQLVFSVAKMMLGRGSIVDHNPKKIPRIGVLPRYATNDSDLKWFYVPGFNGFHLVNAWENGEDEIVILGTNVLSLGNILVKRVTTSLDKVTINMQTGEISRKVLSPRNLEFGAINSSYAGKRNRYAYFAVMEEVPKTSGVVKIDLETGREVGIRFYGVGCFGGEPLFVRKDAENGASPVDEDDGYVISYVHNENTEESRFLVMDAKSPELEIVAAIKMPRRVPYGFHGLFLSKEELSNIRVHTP

## CC(C)=CCC/C(C)=C/C=C/C(C)=C/C=C/C(C)=C/C=C/C=C(C)/C=C/C=C(C)/C=C/C=C(\C)CCC=C(C)C [lycopene]
  cleavage in lycopene-accumulating E. coli and in cell-free extract; HPLC, UHPLC-: BoCCD4-3 is also able to cleave lycopene into bixin aldehyde, but at lower efficiency
